These results are taken from patent US5534554A, “Sucrose ester-C20 to C28 alcohol formulations” (priority 1994, dated 1996).

The test system of series [1] is acyclovir-resistant HSV-2. The experiment in a line: Plaque inhibition, acyclovir-resistant HSV-2 in Vero cells. The following applies: FIG. 7, Panel B. It counts as cell-based.
Another series relates to wild-type HSV-2. Briefly: Plaque inhibition, wild-type HSV-2 in Vero cells. It counts as cell-based. The following applies: FIG. 7, Panel A.
The subject of a further series is viruses. Conditions: cited from earlier work.
For series [2] the following is noted: literature; cited from earlier work.
The next series deals with HIV-1. Briefly: HIV-1 replication in PHA/IL-2-stimulated human peripheral blood mononuclear cells (p24 ELISA). The series is classed as cell-based. The following applies: n-docosanol/Pluronic, FIG. 13. The protocol:
Human peripheral blood mononuclear cells were cultured in medium containing 1 μg/ml PHA plus 5 units/ml IL-2 alone or also containing 100 μg/ml PFA, […] F-68 control vehicle contained in the high dose of n-docosanol/Pluronic. After overnight incubation, the cultures were inoculated with HIV-1 at a multiplicity of infection of 1 virion/cell. After 24 hours incubation at 37° C., the cultures were washed and inoculated with fresh medium containing PHA and IL-2, but lacking inhibitor. Replication of HIV-1 was determined 4 days later by quantitation of viral antigens by a p24-specific ELISA for HIV-1.
Our initial studies on HIV were conducted in collaboration with a U.S. National Institutes of Health laboratory and one of several experiments of this type is summarized in FIG. 13. Normal human peripheral blood mononuclear cells were activated with […] PHA plus 5 units/ml of IL-2 in medium alone or in the presence of the n-docosanol, Pluronic F-68 control vehicle, or phosphonoformic acid (PFA). The next day, the cultures were inoculated with HIV-1 and examined 4 days later for evidence of viral replication by detection of the p24 viral antigen. […] The dose response of HIV-1 to n-docosanol indicates an ED 50 of about 6-9 mM.

Series [3] has as its system herpes. Conditions: literature, tissue culture; cited from earlier work.
Series [4] deals with herpes. The following applies: literature, animal studies; cited from earlier work.

Where two headings read alike, the source gives them in different places.

Take `Nc1nc2c(ncn2COCCO)c(=O)[nH]1` [acyclovir, reference compound]: the “inhibition of acyclovir-resistant HSV-2 mutant” value in series [1] is on record as “fails to respond”. The “inhibition of plaque formation” value with wild-type HSV-2 is reported as “inhibit plaque formation by wild type HSV-2 equally”. For `CCCCCCCCCCO` [Formulation C-10], the antiviral activity entry in the series with viruses (literature) was “significant antiviral activity”. In addition, in series [2], the “cytotoxic and hemolytic effects” value is “exhibited cytotoxic and hemolytic effects”. On to `O=C(O)P(=O)(O)O` [phosphonoformic acid, reference compound], for which the “inhibition of HIV-1 replication” value with HIV-1 is recorded as “very potent antiviral compound”.

Take `OCc1ccccc1` [benzyl alcohol]: the antiviral activity result in the series on viruses (under certain circumstances, U.S. Pat. No. 4,200,655) is recorded as “some antiviral activity”. Turning to `CCCCCCCCCCCCO` [Formulation C-12], in the series with viruses (literature), the antiviral activity result is reported as “significant antiviral activity”. The “cytotoxic and hemolytic effects” value in series [2] is “exhibited cytotoxic and hemolytic effects”. On to `CCCCCCCCCCCCCCCCCCCCCCCCCCCCCCO` [triacontanol], for which the direct antiviral activity result in the series on herpes [3] was “lacked direct antiviral activity”. Besides, in the series on herpes [4], the anti-herpes activity entry is “active as an anti-herpes agent”.
